The test system of assay [1] is 22Rv1 prostate cancer cell xenografts. The experiment in a line: In vivo efficacy on 22Rv1 prostate cancer cell xenografts. On the set-up: species or system Nude balb/c mice (human prostate cancer xenograft). Particulars: 10 mg/kg once a week, intraperitoneal. On the procedure:
Nude balb/c mice (4-6 weeks) are used and they are allowed to acclimatize for a week before the treatment. Mice are inoculated subcutaneously with 3×10^6 cancer cells in 100 μl PBS. Two weeks later, the mice are randomly separated into four groups of 5 animals in each group. Mice are intraperitoneally administered with PBS (control), AAD (5 U; twice a week), Docetaxel, DTX (10 mg/kg; once a week) or AAD+DTX (a combination of both AAD and DTX) in 200 ul PBS. Tumor size is measured by caliper and tumor volume is calculated using formula: (length×width^2)/2. Body weight is measured every week. After the mice are sacrificed by end of the time course, the tumors are excised and weighed.
The difference in the tumor size between control and AAD fusion protein- or DTX-treatment groups are about 55% and 54% at Day 22, respectively. Besides, the combination of AAD fusion protein and DTX-treatment group has a synergistic effect on tumor growth inhibition. Tumor growth of the combination treatment group is inhibited by about 94% when compared to that of the control group.

In assay [2] the test system is Mia-paca-2 pancreatic cancer cell xenografts. In words: In vivo efficacy on Mia-paca-2 pancreatic cancer cell xenografts. The note with it: 100 mg/kg once a week, intraperitoneal, end of the time course. Further details: species or system Nude balb/c mice (human pancreatic cancer xenograft). On the procedure:
Nude balb/c mice (4-6 weeks) are used and they are allowed to acclimatize for a week before the treatment. Mice are inoculated subcutaneously with 2×10^6 cancer cells in 100 μl of 1:1 PBS:Matrigel. Matrigel is used to augment the growth of tumors. Two weeks later, the mice are randomly separated into four groups of 4 animals in each group. Mice are intraperitoneally administered with PBS (control), AAD (5 U; twice a week), Gemcitabine, Gem (100 mg/kg; once a week) or AAD+Gem (a combination of both AAD and Gem) in 200 μl PBS. Tumor size is measured by caliper and tumor volume is calculated using formula: (length×width^2)/2. Body weight is measured every week. After the mice are sacrificed by end of the time course, the tumors are excised and weighed. […] The difference in the tumor size between control and AAD fusion protein-treatment group is about 60% at Day 28.

For `CC(=O)O[C@@]12CO[C@@H]1C[C@H](O)[C@@]1(C)C(=O)[C@H](O)C3=C(C)[C@@H](OC(=O)[C@H](O)[C@@H](NC(=O)OC(C)(C)C)c4ccccc4)C[C@@](O)([C@@H](OC(=O)c4ccccc4)[C@H]21)C3(C)C` [docetaxel], the “difference in the tumor size between control and DTX-treatment group” value in assay [1] (Day 22) is on record as approximately 54%. For the same compound, the “tumor size compared to control” value in assay [1] (end of the time course) is “significantly lower than that in control”.

On to `Nc1ccn([C@@H]2O[C@H](CO)[C@@H](O)C2(F)F)c(=O)n1` [Gemcitabine], for which, in assay [2], the “tumor size compared to control” value is “significantly lower than that in control”.

Values taken from patent USRE48805E1, “Method for cancer targeting treatment and detection of arginine using albumin-binding arginine deiminase fusion protein” (Vision Global Holdings Ltd., priority 2013, dated 2021).
